From patent US20240059688A1, “CONOLIDINE ANALOGUES AS SELECTIVE ACKR3 MODULATORS FOR THE TREATMENT OF CANCER” (Luxembourg Institute of Health (LIH), priority 2020, published 2024)

How the values were obtained:
[1] = biological target: ACKR3 (Homo sapiens, UniProt P25106); assay: ACKR3 β-arrestin recruitment assay (PathHunter, β-galactosidase complementation); assay type: cell-based; details: for EC50: stable human ACKR3-β-arrestin-2-CHO cells, mean ± SEM, at least two independent experiments in duplicate; for Emax: read-out: ACKR3 β-arrestin % CXCL12 Emax ± SEM
Sequence of ACKR3 (P25106 whole entry): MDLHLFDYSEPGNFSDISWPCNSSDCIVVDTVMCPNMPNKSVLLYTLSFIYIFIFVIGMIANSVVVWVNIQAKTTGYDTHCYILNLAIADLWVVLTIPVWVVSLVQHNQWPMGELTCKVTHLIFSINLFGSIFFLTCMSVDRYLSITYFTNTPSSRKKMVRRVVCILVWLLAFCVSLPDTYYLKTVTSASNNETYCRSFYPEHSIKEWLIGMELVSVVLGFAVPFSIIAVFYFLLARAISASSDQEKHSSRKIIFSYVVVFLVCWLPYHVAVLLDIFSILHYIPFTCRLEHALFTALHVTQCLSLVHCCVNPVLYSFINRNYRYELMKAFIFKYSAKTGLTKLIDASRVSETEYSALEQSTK
Protocol: (§1) Compounds were evaluated for agonist activity using a β-arrestin recruitment assay based on β-galactosidase complementation (PathHunter, DiscoverX). Stable human ACKR3-β-arrestin-2-CHO cells (DiscoverX) were plated into 96-well white-walled assay plates at 15,000 cells/well in Cell Plating Reagent 2 (DiscoveRx) and incubated at 37° C., 5% CO2 overnight. The next day, test compounds were prepared at 10× concentration in DPBS/1% DMSO and 10 μL was added to the cells. CXCL-12 was included as a positive agonist control. Following a 1.5 hr incubation at 37° C., 55 μL of detection reagent (prepared according to the manufacturer's specifications) was added to each well. The plate was incubated at room temperature for 1 hr, after which luminescence was measured at 1 sec/well using an EnSpire multimode plate reader (PerkinElmer). Relative luminescence units (RLU) were plotted against the log of compound concentration and data were fit to a three-parameter logistic curve to generate EC50 values (GraphPad Prism). EC50 and % Emax values are reported as means±SEM and are the result of at least two independent experiments performed in duplicate. The CXCR4 assay was run similarly except that human CXCR4-C2Cl2 cells (DiscoverX) were plated at 20,000 cells/well in Cell Plating Reagent 9. The next day, the media was removed and cells were incubated with Cell Plating Reagent 4 for 3 hrs, after which the assay was conducted as described above.

[2] = biological target: T1, human CXCR4 (Homo sapiens, UniProt P61073); assay: CXCR4 β-arrestin recruitment assay (PathHunter); assay type: cell-based; details: human CXCR4-C2Cl2 cells, relative to CXCL-12
T1 construct: host or cells: C2C12
T1 sequence (P61073 whole entry): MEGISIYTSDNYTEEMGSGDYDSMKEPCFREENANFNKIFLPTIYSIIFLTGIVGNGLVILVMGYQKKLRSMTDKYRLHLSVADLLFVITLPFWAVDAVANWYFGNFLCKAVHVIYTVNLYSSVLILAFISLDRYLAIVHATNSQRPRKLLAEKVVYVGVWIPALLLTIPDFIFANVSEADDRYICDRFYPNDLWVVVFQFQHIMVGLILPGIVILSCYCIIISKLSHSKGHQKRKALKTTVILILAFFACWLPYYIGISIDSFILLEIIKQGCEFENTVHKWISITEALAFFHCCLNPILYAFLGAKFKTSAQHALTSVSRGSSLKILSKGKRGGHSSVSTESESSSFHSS
Protocol: as §1

SMILES	EC50 [1] [µM]	CXCR4 β-arrestin % CXCL-12Emax (n = 2) [2] [%]	Emax [1] [%]
CCCCCN1CCC(C(=O)c2cc3ccccc3[nH]2)CC1 [WW-19, 1H-indol-2-yl(1-pentylpiperidin-4-yl)methanone]	> 10	9	–
CCCCCN1CCC(C(=O)c2cc3ccccc3n2CCCCC)CC1 [WW-20]	1.77 ± 0.078	11	154 ± 7
CCCCCN1CCN(Cc2cc3ccccc3[nH]2)CC1 [WW-21, 2-[(4-pentylpiperazin-1-yl)methyl]-1H-indole]	> 10	10	–
O=C(c1cc2ccccc2[nH]1)N1CCNCC12CC2 [WW-22, 2-(4,7-diazaspiro[2.5]oct-4-ylcarbonyl)-1H-indole]	> 10	4	–
CCCCCN1CCN(C(=O)c2cc3ccccc3[nH]2)C2(CC2)C1 [WW-23, 2-[(7-pentyl-4,7-diazaspiro[2.5]oct-4-yl)carbonyl]-1H-indole]	3.04 ± 0.13	11	156 ± 11
CCCCCN1CCN(C(=O)c2cc3ccccc3n2CCCCC)C2(CC2)C1 [WW-24, 1-pentyl-2-[(7-pentyl-4,7-diazaspiro[2.5]oct-4-yl)carbonyl]-1H-indole]	6.05 ± 0.53	5	154 ± 17
CCCCCN1CCN(C(=O)c2cc3ccccc3[nH]2)C(CC)C1 (centres unmarked) [WW-25, 2-[(2-ethyl-4-pentylpiperazin-1-yl)carbonyl]-1H-indole]	> 10	4	–
CC(C)(C)OC(=O)N1CC[C@H](NC(=O)c2cc3ccccc3[nH]2)C1 [WW-26, Tert-butyl (3S)-3-[(1H-indol-2-ylcarbonyl)amino]pyrrolidine-1-carboxylate]	> 10	9	–
CC(C)(C)OC(=O)N1CCCN(C(=O)c2cc3ccccc3[nH]2)CC1 [WW-27, tert-butyl 4-(1H-indol-2-ylcarbonyl)-1,4-diazepane-1-carboxylate]	> 10	4	–
CCCCCN1CCN(C(=O)c2cc3ccccc3[nH]2)CC1 [WW-28, 2-[(4-pentylpiperazin-1-yl)carbonyl]-1H-indole]	> 10	11	–
CCCCCN1CC[C@H](NC(=O)c2cc3ccccc3[nH]2)C1 [WW-29, N-[(3S)-1-pentylpyrrolidin-3-yl]-1H-indole-2-carboxamide]	1.92 ± 0.056	15	145 ± 4
CCCCCN1CCCN(C(=O)c2cc3ccccc3[nH]2)CC1 [WW-30, 2-[(4-pentyl-1,4-diazepan-1-yl)carbonyl]-1H-indole]	> 10	7	–
NC1CN(C(=O)c2cc3ccccc3[nH]2)C1 [WW-31, 1-(1H-indole-2-ylcarbonyl)azetidin-3-amine]	> 10	7	–
CCCCCNC1CN(C(=O)c2cc3ccccc3[nH]2)C1 [WW-32, 1-(1H-indole-2-ylcarbonyl)-N-pentylazetidin-3-amine]	> 10	9	–
O=C(N[C@H]1CCN(c2nccn3cccc23)C1)c1cc2ccccc2[nH]1 [WW-33, N-[(3S)-1-pyrrolo[1,2-a]pyrazin-1-ylpyrrolidin-3-yl]-1H-indole-2-carboxamide]	0.377 ± 0.009	6	150 ± 3
CCCCCN1CC[C@H](NC(=O)c2cc3cc(OC)c(OC)c(OC)c3[nH]2)C1 [WW-43, 5,6,7-Trimethoxy-N-[(3S)-1-pentylpyrrolidin-3-yl]-1H-indole-2-carboxamide]	> 10	10	–
CCCCCN1CC[C@H](NC(=O)c2cc3ccc(-c4ccc(F)cc4)cc3[nH]2)C1 [WW-44, 6-(4-Fluorophenyl)-N-[(3S)-1-pentylpyrrolidin-3-yl]-1H-indole-2-carboxamide]	4.14 ± 0.11	26	110 ± 7
CCCCCN1CC[C@H](NC(=O)c2cc3ccc(-c4ccc(OC)cc4)cc3[nH]2)C1 [WW-45, 6-(4-methoxyphenyl)-N-[(3S)-1-pentylpyrrolidin-3-yl]-1H-indole-2-carboxamide]	> 10	6	–

SMILES	EC50 [1] [µM]	CXCR4 β-arrestin % CXCL-12Emax (n = 2) [2] [%]	Emax [1] [%]
CCCCCN1CC[C@H](NC(=O)c2cc3cccc(-c4ccc(F)cc4)c3[nH]2)C1 [WW-46, 7-(4-Fluorophenyl)-N-[(3S)-1-pentylpyrrolidin-3-yl]-1H-indole-2-carboxamide]	0.504 ± 0.062	7	119 ± 8
CCCCCN1CC[C@H](NC(=O)c2cc3c(OC)c(OC)c(OC)cc3[nH]2)C1 [WW-47, 4,5,6-Trimethoxy-N-[(3S)-1-pentylpyrrolidin-3-yl]-1H-indole-2-carboxamide]	> 10	18	–
C/C=C1/CN(CCCCC)CC[C@H]1C(=O)c1cc2cc(Cl)ccc2[nH]1 [WW-54, (5-chloro-1H-indol-2-yl)[(3E,4R)-3-ethylidene-1-pentylpiperidin-4-yl]methanone]	1.96 ± 0.027	15	129 ± 4
C/C=C1/CN(CCCCC)CC[C@H]1C(=O)c1cc2ccc(F)cc2[nH]1 [WW-55, [(3E,4R)-3-ethylidene-1-pentylpiperidin-4-yl](6-fluoro-1H-indol-2-yl)methanone]	5 ± 0.6	10	90 ± 1
CCCCCN1CCC(C)(C(=O)c2cc3ccccc3[nH]2)CC1 [WW-57, 1H-Indole-2-yl(4-methyl-1-pentylpiperidin-4-yl)methanone]	6.45 ± 0.72	5	96 ± 4
C/C=C1/CN(CCCCN)CC[C@H]1C(=O)c1cc2ccccc2[nH]1 [WW-58, (3E,4R)-(3-ethylidene-1-(4-aminobutyl)piperidin-4-yl)(1H-indol-2-yl)methanone]	> 10	3	–
C/C=C1/CN(CCCCCN)CC[C@H]1C(=O)c1cc2ccccc2[nH]1 [WW-59, (3E,4R)-(3-ethylidene-1-(5-aminopentyl)piperidin-4-yl)(1H-indol-2-yl)methanone]	> 10	9	–
C/C=C1/CN(CCOCCN)CC[C@H]1C(=O)c1cc2ccccc2[nH]1 [WW-60, (3E,4R)-(3-ethylidene-1-(2-ethoxy-(2-aminoethyl))piperidin-4-yl)(1H-indol-2-yl)methanone]	> 10	11	–
C/C=C1/CN(Cc2ccc(OC)cc2)CC[C@H]1C(O)c1cc2ccccc2n1S(=O)(=O)c1ccccc1 (stereo partly drawn) [WW-61, [(3E,4R)-3-ethylidene-1-(4-methoxybenzyl)piperidin-4-yl][1-(phenylsulfonyl)-1H-indol-2-yl]methanol]	0.527 ± 0.13	10	156 ± 7
C/C=C1/CN(CCCCCC)CC[C@H]1C(=O)c1cc2ccccc2[nH]1 [WW-62, [(3E,4R)-3-ethylidene-1-hexylpiperidin-4-yl](1H-indol-2-yl)methanone]	3.04 ± 0.32	5	137 ± 3
C/C=C1/CN(CCCC(C)C)CC[C@H]1C(=O)c1cc2ccccc2[nH]1 [WW-63, [(3E,4R)-3-ethylidene-1-(4-methylpentyl)piperidin-4-yl](1H-indol-2-yl)methanone]	1.78 ± 0.16	15	152 ± 1
CCOC(=O)C(c1[nH]c2ccccc2c1C=O)C1CCN(S(=O)(=O)c2ccc(C)cc2)C/C1=N\O[Si](C)(C)C(C)(C)C (centres unmarked) [WW-64]	> 10	16	–
CCOC(=O)C(c1[nH]c2ccccc2c1C=O)C1CCN(S(=O)(=O)c2ccc(C)cc2)C/C1=N\O (centres unmarked) [WW-65, ethyl (3-formyl-1H-indol-2-yl){(3Z)-3-(hydroxyamino)-1-[(4-methylphenyl)sulfonyl]piperidin-4-yl}acetate]	> 10	11	–
C/C=C1/CN(CCCCC)CC[C@H]1C(=O)c1cc2cc(C(C)=O)ccc2n1CCCCC [WW-66, 1-(2-{[(3E,4R)-3-ethylidene-1-pentylpiperidin-4-yl]carbonyl}-1-pentyl-1H-indol-5-yl)ethanone]	> 10	8	–
C/C=C1/CN(CCCCCCC)CC[C@H]1C(=O)c1cc2ccccc2[nH]1 [WW-67, [(3E,4R)-3-ethylidene-1-heptylpiperidin-4-yl](1H-indol-2-yl)methanone]	2.46 ± 0.27	12	135 ± 4
C/C=C1/CN(CC2CCCCC2)CC[C@H]1C(=O)c1cc2ccccc2[nH]1 [WW-68, [(3E,4R)-1-(cyclohexylmethyl)-3-ethylidenepiperidin-4-yl](1H-indol-2-yl)methanone]	3.61 ± 0.39	8	136 ± 3
C/C=C1/CN(Cc2ccc(OC)cc2)CC[C@H]1C(O)c1cc2cc(-c3ccc(F)cc3)ccc2n1S(=O)(=O)c1ccccc1 (some centres unmarked) [WW-69]	1.68 ± 0.3	11	79 ± 6
